Assay results published in patent US20160008391A1, “GALACTOSAMINOGALACTAN COMPRISING alpha-1-4 LINKED GALACTOSE AND alpha-1-4 LINKED N-ACETYLGALACTOSAMINE FOR USE IN THE TREATMENT OF AT LEAST ONE INFLAMMATORY DISEASE” (INSTITUT PASTEUR, priority 2013, published 2016).

Legend:
human PBMCs [1] = experiment: A. fumigatus conidia-induced cytokine production in human PBMCs; format: cell-based; conditions: 7 days, presence vs absence of recombinant human IL-1RA 10 ng/ml
Procedure: (§1) A clinical isolate of Aspergillus fumigatus V05-27, which has been characterized previously was used for stimulations (Netea et al., 2003). Conidia and hyphae were prepared and heat-inactivated (HI) as previously described (Chai et al., 2009a). A concentration of 1×10^7/ml was used in the experiments, unless otherwise indicated. C. albicans, strain ATCC MYA-3573 (UC820) (Gow et al., 2007; Lehrer and Cline, 1969). Candida were heat-killed (HK) at 98° C. for 1 hour and used in a final concentration of 1×10^7/ml. Recombinant human IL-1β, IL-23, IL-12 and IL-18 were purchased from R&D Systems (Minneapolis, Minn., USA) and were used in end concentrations of 100 ng/ml, 50 ng/ml, 10 ng/ml and 50 ng/ml respectively. Recombinant human (rh) IL-1Ra (Amgen, Inc., Thousand Oaks, Calif., USA) was used to antagonize IL-1β signalling at a final concentration of 10 ng/ml. Anti-human IL-1Ra (R&D) was used to block IL-1Ra in a final concentration of 10 μg/ml, and was compared to isotype control. Pattern recognition pathways were inhibited in PBMCs by pre-stimulation for 1 hour with a specific inhibitor. LPS derived from Bartonella quitana was used to block TLR4 (Abdollahi-Roodsaz et al., 2007). B. quitana LPS was extracted and purified as described previously (Hirschfeld et al., 1999). Mouse anti-humanTLR-2 (eBioscience, Halle-Zoersel, Belgium) and control mouse IgG1 (eBioscience) were used at a final concentration of 10 μg/mL. Anti-human integrin β2 (αCR3) and control goat IgG were purchased from R&D systems (Minneapolis, Minn., USA) and used in a final concentration of 10 μg/mL. […]
(§2) Venous blood from healthy volunteers was drawn into 10 ml EDTA tubes after written informed consent, after which PBMCs were isolated as previously described (van de Veerdonk et al., 2009). […] The cells were counted using a particle counter (Beckmann Coulter, Woerden, The Netherlands) and the cell number was adjusted to 5×10^6/ml. […]
(§3) Cytokines were measured using commercially available ELISAs (R&D Systems)(Sanquin, Amsterdam, The Netherlands) according to the protocols supplied by the manufacturer. […]

human PBMCs [2] = experiment: Cytokine-driven (IL-1β/IL-23, IL-12/IL-18) T-helper cytokine responses in human PBMCs; format: cell-based; conditions: 7 days, presence vs absence of recombinant human IL-1RA 10 ng/ml
Procedure: as §1, §2, §3

DSS-induced colitis = experiment: Dextran sulfate sodium-induced colitis in WT and p47phox−/− mice; format: in vivo; conditions: WT and p47phox−/− mice treated with Anakinra
Procedure: Mice received either regular drinking water (control) or 2.5% dextran sulfate sodium (DSS) in drinking water for 7 days and then allowed to recover by drinking water alone for an additional 7 days. GAG was given intraperitoneally (1 mg/kg) daily for a week. Weight changes were recorded daily, and the day after the 7-days of rest mice were killed and tissues were collected for histology and cytokine analysis. Colonic sections were stained with H&E (Takedatsu 2008). To assess colitis severity, stool and histological scores were used that recently were introduced and proven sensitive to experimental therapy (PMID: 21763243).
Colitis was induced in C57BL/6 wild-type (WT) or p47phox^−/− mice that recapitulate several of the features of the human Chronic Granulomatous Disease (CGD) (Huang et al., 1998; Romani et al., 2008). Colitis is a severe complication of CGD patients, the management of which is a challenge because standard immunosuppressive therapy increases the risk of infection in already immunocompromised hosts (Huang et al., 2004). Colitis was induced with dextran sulfate sodium (DSS 2.5% in drinking water for 7 days and then allowed to recover by drinking water alone for an additional 7 days) and the effect of GAG (1 mg/kg intraperitoneally for a week) on colonic injury was assessed. The day after the 7-day of rest, mice were killed and tissues were collected for histology, RNA and cytokine analysis. Colonic sections were stained with H&E, and histology was scored. Cytokines were measured by enzyme-linked immunoabsorbent assay (ELISA) and real time-polymerase chain reaction (RT-PCR) on colonic tissues.

[3] = cited from earlier work
[4] = patients with rheumatoid arthritis

## IL-1RA: human recombinant form of interleukin-1 receptor antagonist, commercially produced as anakinra
Human PBMCs [1]
  IFNγ induction by Aspergillus conidia: reduced
  IL-17 induction by Aspergillus conidia: reduced
  IL-22 induction by Aspergillus conidia: reduced
Human PBMCs [2]
  IFNγ induction by IL-12/IL-18: reduced
  IL-17 induction by IL-1/IL-23: reduced
  IL-22 induction by IL-1/IL-23: reduced
DSS-induced colitis
  cytokine gene expression, compared with the effect of GAG: similar
  damage score, compared with the effect of GAG: similar
  inflammatory pathology, compared with the effect of GAG: similar
[3]; human, in vivo
  side effect: diarrhea: 7%
  side effect: flu-like syndrome: 6%
  side effect: infections of upper respiratory tract: 13%
  side effect: nausea: 8%
  side effect: risk of infections: 40%
  side effect: severe infections: 2%
  side effect: sinusitis: 7%
[3]; [4]
  progressive joint destruction: slows
  symptoms of rheumatoid arthritis: reduces
